# How the values were obtained:
# Settings in all cases: incubation time: 72 h
# [1] = test system: CAL-85-1; test: normalised viability (% of control), CellTiter-Blue; higher = more viable cells (about 100 = DMSO control)
# Description: (§1)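 DSRT, CellTiter-Blue viability, 72 h incubation. Signal is normalised to DMSO and benzethonium chloride controls. Value is the normalised response at dose 3.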
# [2] = test system: CAL-51; test: as above
# Description: as §1
# [3] = test system: BT-474; test: as above
# Description: as §1
# [4] = test system: MDA-MB-453; test: as above
# Description: as §1
# [5] = test system: HDQ-P1; test: as above
# Description: as §1
# [6] = test system: MDA-MB-468; test: as above
# Description: as §1
# [7] = test system: MDA-MB-231; test: as above
# Description: as §1
# [8] = test system: MDA-MB-436; test: as above
# Description: as §1
# [9] = test system: HCC1937; test: as above
# Description: as §1
# [10] = test system: SK-BR-3; test: as above
# Description: as §1
# [11] = test system: CAL-148; test: as above
# Description: as §1
# [12] = test system: CAL-120; test: as above
# Description: as §1
# [13] = test system: DU-4475; test: as above
# Description: as §1
# [14] = test system: Hs578T; test: as above
# Description: as §1
# [15] = test system: MFM-223; test: as above
# Description: as §1
# [16] = test system: HCC1599; test: as above
# Description: as §1
# [17] = test system: HCC1143; test: as above
# Description: as §1
# [18] = test system: BT-549; test: as above
# Description: as §1
# [19] = test system: BT-474; test: drug sensitivity score (DSS), CellTiter-Glo (DSS (AUC-based score)); higher = stronger drug effect (viability inhibition or cytotoxicity); extreme values may be limits of the assay
# In short: (§2)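 Breast cancer cell lines, seeded as 20 µl suspension, were incubated 72 h with compound in 384-well plates at 5 concentrations in 10-fold steps over a 10,000-fold range set for each compound. Fluorescence from CellTox Green was read at 485/520 nm before CellTiter-Glo luminescence, which was read after 10 min at room temperature. Every plate was normalised to 0.1 % DMSO and a positive kill control, and the drug sensitivity score was taken from the area under the fitted dose-response curve.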
# [20] = test system: MDA-MB-453; test: as above
# In short: as §2
# [21] = test system: HDQ-P1; test: as above
# In short: as §2
# [22] = test system: MDA-MB-468; test: as above
# In short: as §2
# [23] = test system: MDA-MB-231; test: as above
# In short: as §2
# [24] = test system: HCC1937; test: as above
# In short: as §2
# [25] = test system: SK-BR-3; test: as above
# In short: as §2
# [26] = test system: CAL-120; test: as above
# In short: as §2
# [27] = test system: DU-4475; test: as above
# In short: as §2
# [28] = test system: Hs578T; test: as above
# In short: as §2
# [29] = test system: MFM-223; test: as above
# In short: as §2
Structure (SMILES),normalised viability ([1]; 10 nM) [%],normalised viability ([2]; 10 nM) [%],normalised viability ([3]; 100 nM) [%],normalised viability ([4]; 10 nM) [%],normalised viability ([5]; 10 nM) [%],normalised viability ([6]; 100 nM) [%],normalised viability ([7]; 100 nM) [%],normalised viability ([8]; 100 nM) [%],normalised viability ([9]; 100 nM) [%],drug sensitivity score [19],drug sensitivity score [20],drug sensitivity score [21],drug sensitivity score [22],drug sensitivity score [23],drug sensitivity score [24],drug sensitivity score [25],drug sensitivity score [26],drug sensitivity score [27],drug sensitivity score [28],drug sensitivity score [29],also measured
c1ccc2c(CCNc3ccc(Nc4ccncc4)cc3)c[nH]c2c1 [Serdemetan],102,104,111,96.7,106,108,85.8,113,95.2,4.79,1.37,2.35,7.12,3.86,3.14,6.23,0,7.09,0.96,1.34,normalised viability ([10]; 100 nM): 79.7%; normalised viability ([11]; 10 nM): 83.5%; normalised viability ([12]; 100 nM): 81.9%; normalised viability ([13]; 10 nM): 103%; normalised viability ([14]; 100 nM): 77.2%; normalised viability ([15]; 100 nM): 92.4%; normalised viability ([16]; 100 nM): 136%; normalised viability ([17]; 100 nM): 76%; normalised viability ([18]; 100 nM): 113%
S=P(N1CC1)(N1CC1)N1CC1 [Thio-TEPA],–,–,–,–,–,–,–,–,–,0,0,0,0,0,0,0,0,0,0,0,normalised viability ([1]; 100 nM): 102%; normalised viability ([2]; 100 nM): 93.7%; normalised viability ([3]; 1000 nM): 114%; normalised viability ([4]; 100 nM): 97.6%; normalised viability ([5]; 100 nM): 120%; normalised viability ([6]; 1000 nM): 103%; normalised viability ([7]; 1000 nM): 98.2%; normalised viability ([8]; 1000 nM): 118%; normalised viability ([9]; 1000 nM): 123%; normalised viability ([10]; 1000 nM): 91.1%; normalised viability ([11]; 100 nM): 102%; normalised viability ([12]; 1000 nM): 86.7%; normalised viability ([13]; 100 nM): 102%; normalised viability ([14]; 1000 nM): 90.8%; normalised viability ([15]; 1000 nM): 88.4%; normalised viability ([16]; 1000 nM): 87.4%; normalised viability ([17]; 1000 nM): 88.8%; normalised viability ([18]; 1000 nM): 105%
CN(C)CCOc1ccc(/C(=C(/CCCl)c2ccccc2)c2ccccc2)cc1 [Toremifene],100,107,126,118,129,106,94.2,110,97.5,1.35,0,0,0,0,1.98,0,0,0,0,0.949,normalised viability ([10]; 100 nM): 88.8%; normalised viability ([11]; 10 nM): 108%; normalised viability ([12]; 100 nM): 93.7%; normalised viability ([13]; 10 nM): 106%; normalised viability ([14]; 100 nM): 85.4%; normalised viability ([15]; 100 nM): 99.8%; normalised viability ([16]; 100 nM): 114%; normalised viability ([17]; 100 nM): 109%; normalised viability ([18]; 100 nM): 109%
CC(C)C[C@@H](C(=O)N[C@H](C(=O)OC1CCCC1)c1ccccc1)[C@H](O)C(=O)NO [Tosedostat],89.4,101,110,99.1,113,64.6,72.6,96.2,67.9,16.9,14.1,5.25,19.1,11.1,8.46,0,12.7,0,2.74,6.14,normalised viability ([10]; 100 nM): 88.7%; normalised viability ([11]; 10 nM): 91.2%; normalised viability ([12]; 100 nM): 66.8%; normalised viability ([13]; 10 nM): 79.7%; normalised viability ([14]; 100 nM): 94.2%; normalised viability ([15]; 100 nM): 79.8%; normalised viability ([16]; 100 nM): 102%; normalised viability ([17]; 100 nM): 89.3%; normalised viability ([18]; 100 nM): 72.7%
COc1cc2/c(=N/c3ccc(Br)cc3F)nc[nH]c2cc1OCC1CCN(C)CC1 [Vandetanib],104,99.3,90.6,104,76.7,93.8,94,71.3,81.8,3.47,0,0,4.76,0,0,0,0.197,0,0,0.335,normalised viability ([10]; 100 nM): 63.8%; normalised viability ([11]; 10 nM): 92%; normalised viability ([12]; 100 nM): 98.3%; normalised viability ([13]; 10 nM): 110%; normalised viability ([14]; 100 nM): 67.8%; normalised viability ([15]; 100 nM): 112%; normalised viability ([16]; 100 nM): 96.3%; normalised viability ([17]; 100 nM): 111%; normalised viability ([18]; 100 nM): 89%
COCC[n+]1c2c(n(Cc3cnccn3)c1C)C(=O)c1ccccc1C2=O [YM155],29.7,70.5,1.04,44.7,64.2,0.74,1.71,2.36,3.81,40,29.6,33.5,41.9,37.8,35.3,33,42.3,27.1,18.8,28.4,normalised viability ([10]; 100 nM): 1.25%; normalised viability ([11]; 10 nM): 61.4%; normalised viability ([12]; 100 nM): 5.35%; normalised viability ([13]; 10 nM): 110%; normalised viability ([14]; 100 nM): 47.6%; normalised viability ([15]; 100 nM): 26.1%; normalised viability ([16]; 100 nM): 10%; normalised viability ([17]; 100 nM): 12.4%; normalised viability ([18]; 100 nM): 34%

# Reference: the supplement of paper PMC4862054
